These results are taken from patent publication US20210238225A1, “PEPTIDOMIMETIC INHIBITORS OF THE PEPTIDYL-PROLYL CIS/TRANS ISOMERASE (PIN1)” (DANA-FARBER CANCER INSTITUTE, INC., priority 2018, published 2021).

Non-standard residues stand in square brackets, D forms with d. Residues, ends and D or L forms follow the SMILES beside them. *: point of attachment. Phe(F5) = N[C@@H](Cc1c(F)c(F)c(F)c(F)c1F)C(=O)O; Phe(3,5-F2) = N[C@@H](Cc1cc(F)cc(F)c1)C(=O)O; Phe(4-F) = N[C@@H](Cc1ccc(F)cc1)C(=O)O; 2Nal = N[C@@H](Cc1ccc2ccccc2c1)C(=O)O; Met(O2) = CS(=O)(=O)CC[C@H](N)C(=O)O; Bta = N[C@@H](Cc1csc2ccccc12)C(=O)O; NH(4-Me-benzyl) = Cc1ccc(CN*)cc1; Cit = NC(=O)NCCC[C@H](N)C(=O)O; X7 = c1ccc(-c2ccc(N*)cc2)cc1; Pip = O=C(O)[C@@H]1CCCCN1; βNA = c1ccc2cc(N*)ccc2c1; Fluoroacetyl = O=C(CF)*; X5 = Cc1ccc(CN(C)*)cc1; X4 = CN(c1ccccc1)*; ClAc = O=C(CCl)*; X1 = O=C(C1CO1)*

A word on the Ki: it is the equilibrium dissociation constant of an inhibitor or competing ligand from its target.

Chain of Pin1 (GST-Pin1) (Q13526 whole entry): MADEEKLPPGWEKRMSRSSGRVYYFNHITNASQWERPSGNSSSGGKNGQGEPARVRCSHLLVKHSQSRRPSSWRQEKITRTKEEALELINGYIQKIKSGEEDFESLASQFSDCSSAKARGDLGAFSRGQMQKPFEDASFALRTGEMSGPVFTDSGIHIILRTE

The first assay has as its target Pin1 (GST-Pin1) (Homo sapiens, UniProt Q13526). Briefly: Fluorescence polarization (FP) assay, binding to Pin1. Conditions: Ki, μM (FP Assay), competition with fluorescein-labeled peptide probe; 12 hours pre-incubation at 4° C.; Kenakin Ki equation. For orientation: Polarisation of emitted light reports the rotation of a fluorescent probe.
For `NC(=O)NCCC[C@H](NC(=O)[C@H](Cc1c[nH]c2ccccc12)NC(=O)[C@@H]1CCCCN1C(=O)[C@H](CCC(=O)O)NC(=O)CF)C(N)=O` [Compound 6b, (S)-5-((S)-2-(((S)-1-(((S)-1-Amino-1-oxo-5-ureidopentan-2-yl)amino)-3-(1H-indol-3-yl)-1-oxopropan-2-yl)carbamoyl)piperidin-1-yl)-4-(2-fluoroacetamido)-5-oxopentanoic acid] (Fluoroacetyl-E[Pip]W[Cit]-NH2), the Ki was over 10 µM.
With `N=C(N)NCCC[C@H](NC(=O)[C@H](Cc1ccc2ccccc2c1)NC(=O)[C@@H]1CCCCN1C(=O)[C@H](CCC(=O)O)NC(=O)CF)C(N)=O` [Compound 6b-1, (S)-5-((S)-2-(((S)-1-(((S)-1-Amino-5-guanidino-1-oxopentan-2-yl)amino)-3-(naphthalen-2-yl)-1-oxopropan-2-yl)carbamoyl)piperidin-1-yl)-4-(2-fluoroacetamido)-5-oxopentanoic acid] (Fluoroacetyl-E[Pip][2Nal]R-NH2), the Ki is over 10 µM.
Regarding `COC(=O)CC[C@H](NC(=O)CCl)C(=O)N1CCCC[C@H]1C(=O)N[C@@H](Cc1c[nH]c2ccccc12)C(=O)N[C@@H](CCCNC(N)=O)C(=O)Nc1ccc2ccccc2c1` [Compound 11-8, Methyl (S)-5-((S)-2-(((S)-3-(1H-indol-3-yl)-1-(((S)-1-(naphthalen-2-ylamino)-1-oxo-5-ureidopentan-2-yl)amino)-1-oxopropan-2-yl)carbamoyl)piperidin-1-yl)-4-(2-chloroacetamido)-5-oxopentanoate] (ClAc-E(OMe)[Pip]W[Cit]-βNA), the affinity corresponds to a Ki of 0.15 µM.
`COC(=O)CC[C@H](NC(=O)CCl)C(=O)N1CCCC[C@H]1C(=O)N[C@@H](Cc1c[nH]c2ccccc12)C(=O)N[C@@H](CCCNC(N)=O)C(=O)N(C)c1ccccc1` [Compound 11-15, Methyl (S)-5-((S)-2-(((S)-3-(1H-indol-3-yl)-1-(((S)-1-(methyl(phenyl)amino)-1-oxo-5-ureidopentan-2-yl)amino)-1-oxopropan-2-yl)carbamoyl)piperidin-1-yl)-4-(2-chloroacetamido)-5-oxopentanoate] (ClAc-E(OMe)[Pip]W[Cit]-X4) came in with a Ki of 0.15 µM.
Take `COC(=O)CC[C@@H](NC(=O)CCl)C(=O)N1CCCC[C@H]1C(=O)N[C@@H](Cc1c[nH]c2ccccc12)C(=O)N[C@@H](Cc1ccc(F)cc1)C(=O)NCc1ccc(C)cc1` [Compound 11-16, Methyl (R)-4-(2-chloroacetamido)-5-((S)-2-(((S)-1-(((S)-3-(4-fluorophenyl)-1-((4-methyl-benzyl)amino)-1-oxopropan-2-yl)amino)-3-(1H-indol-3-yl)-1-oxopropan-2-yl)carbamoyl)-piperidin-1-yl)-5-oxopentanoate] (ClAc-[dE](OMe)[Pip]W[Phe(4-F)]-{NH(4-Me-benzyl)}): the inhibition constant (Ki) was over 10 µM.
Take `COC(=O)CC[C@H](NC(=O)CCl)C(=O)N1CCCC[C@H]1C(=O)N[C@@H](Cc1c[nH]c2ccccc12)C(=O)N[C@@H](CCCNC(N)=O)C(=O)Nc1ccc(-c2ccccc2)cc1` [Compound 11-17, Methyl (S)-5-((S)-2-(((S)-1-(((S)-1-([1,1′-biphenyl]-4-ylamino)-1-oxo-5-ureidopentan-2-yl)amino)-3-(1H-indol-3-yl)-1-oxopropan-2-yl)carbamoyl)piperidin-1-yl)-4-(2-chloroacetamido)-5-oxopentanoate] (ClAc-E(OMe)[Pip]W[Cit]-X7): the Ki is over 10 µM.
In turn, `COC(=O)CC[C@H](NC(=O)CCl)C(=O)N1CCCC[C@H]1C(=O)N[C@@H](Cc1c[nH]c2ccccc12)C(=O)N[C@@H](Cc1ccc(F)cc1)C(=O)N(C)c1ccccc1` [Compound 11-20, Methyl (S)-4-(2-chloroacetamido)-5-((S)-2-(((S)-1-(((S)-3-(4-fluorophenyl)-1-(methyl-(phenyl)amino)-1-oxopropan-2-yl)amino)-3-(1H-indol-3-yl)-1-oxopropan-2-yl)carbamoyl)-piperidin-1-yl)-5-oxopentanoate] (ClAc-E(OMe)[Pip]W[Phe(4-F)]-X4) registered an inhibition constant (Ki) of 0.223 µM.
For `COC(=O)CC[C@H](NC(=O)CCl)C(=O)N1CCCC[C@H]1C(=O)N[C@@H](Cc1csc2ccccc12)C(=O)N[C@@H](CCCNC(N)=O)C(=O)NCc1ccc(C)cc1` [Compound 11-21, Methyl (S)-5-((S)-2-(((S)-3-(benzo[&]thiophen-3-yl)-1-(((S)-1-((4-methylbenzyl)amino)-1-oxo-5-ureidopentan-2-yl)amino)-1-oxopropan-2-yl)carbamoyl)piperidin-1-yl)-4-(2-chloroacetamido)-5-oxopentanoate] (ClAc-E(OMe)[Pip][Bta][Cit]-{NH(4-Me-benzyl)}), the Ki came out at 0.015 µM.
In the case of `COC(=O)CC[C@H](NC(=O)CCl)C(=O)N1CCCC[C@H]1C(=O)N[C@@H](Cc1csc2ccccc12)C(=O)N[C@@H](Cc1ccc(F)cc1)C(=O)NCc1ccc(C)cc1` [Compound 11-22, Methyl (S)-5-((S)-2-(((S)-3-(benzo[b]thiophen-3-yl)-1-(((S)-3-(4-fluorophenyl)-1-((4-methylbenzyl)amino)-1-oxopropan-2-yl)amino)-1-oxopropan-2-yl)carbamoyl)piperidin-1-yl)-4-(2-chloroacetamido)-5-oxopentanoate] (ClAc-E(OMe)[Pip][Bta][Phe(4-F)]-{NH(4-Me-benzyl)}), the Ki was over 10 µM.
`COC(=O)CC[C@H](NC(=O)CCl)C(=O)N1CCCC[C@H]1C(=O)N[C@@H](Cc1c[nH]c2ccccc12)C(=O)N[C@@H](Cc1cc(F)cc(F)c1)C(=O)NCc1ccc(C)cc1` [Compound 11-24, Methyl (S)-4-(2-chloroacetamido)-5-((S)-2-(((S)-1-(((S)-3-(3,5-difluorophenyl)-1-((4-methyl-benzyl)amino)-1-oxopropan-2-yl)amino)-3-(1H-indol-3-yl)-1-oxopropan-2-yl)carbamoyl)piperidin-1-yl)-5-oxopentanoate] (ClAc-E(OMe)[Pip]W[Phe(3,5-F2)]-{NH(4-Me-benzyl)}) came in with a Ki of over 10 µM.
`COC(=O)CC[C@H](NC(=O)CCl)C(=O)N1CCCC[C@H]1C(=O)N[C@@H](Cc1c[nH]c2ccccc12)C(=O)N[C@@H](Cc1c(F)c(F)c(F)c(F)c1F)C(=O)NCc1ccc(C)cc1` [Compound 11-25, Methyl (S)-5-((S)-2-(((S)-3-(1H-indol-3-yl)-1-(((S)-1-((4-methylbenzyl)amino)-1-oxo-3-(perfluoro-phenyl)propan-2-yl)amino)-1-oxopropan-2-yl)carbamoyl)piperidin-1-yl)-4-(2-chloroacetamido)-5-oxopentanoate] (ClAc-E(OMe)[Pip]W[Phe(F5)]-{NH(4-Me-benzyl)}) displayed a Ki of over 10 µM.

The assay is the same for the next values; noted with them: competition with fluorescein-labeled peptide probe; 12 hours pre-incubation at 4° C.; Kenakin Ki equation; read-out: Ki, μM (FP Assay).
For the molecule `NC(=O)NCCC[C@H](NC(=O)[C@H](Cc1ccc2ccccc2c1)NC(=O)[C@@H]1CCCCN1C(=O)[C@H](CCC(=O)O)N1C(=O)C=CC1=O)C(N)=O` [Compound 5, (S)-5-((S)-2-(((S)-1-(((S)-1-Amino-1-oxo-5-ureidopentan-2-yl)amino)-3-(naphthalen-2-yl)-1-oxopropan-2-yl)carbamoyl)piperidin-1-yl)-4-(2,5-dioxo-2,5-dihydro-1H-pyrrol-1-yl)-5-oxopentanoic acid], the Ki was over 10 µM.
Turning to `NC(=O)NCCC[C@H](NC(=O)[C@H](Cc1ccc2ccccc2c1)NC(=O)[C@@H]1CCCCN1C(=O)C[C@H](CCC(=O)O)N1C(=O)C=CC1=O)C(N)=O` [Compound 5-1, (S)-6-((S)-2-(((S)-1-(((S)-1-Amino-1-oxo-5-ureidopentan-2-yl)amino)-3-(naphthalen-2-yl)-1-oxopropan-2-yl)carbamoyl)piperidin-1-yl)-4-(2,5-dioxo-2,5-dihydro-1H-pyrrol-1-yl)-6-oxohexanoic acid], the Ki was found to be 0.61 µM.
As for `Cc1ccc(CN(C)C(=O)[C@H](CCCNC(N)=O)NC(=O)[C@H](Cc2c[nH]c3ccccc23)NC(=O)[C@@H]2CCCCN2C(=O)[C@H](CCC(=O)O)NC(=O)CCl)cc1` [Compound 11-9, (S)-5-((S)-2-(((S)-3-(1H-Indol-3-yl)-1-(((S)-1-(methyl(4-methylbenzyl)amino)-1-oxo-5-ureidopentan-2-yl)amino)-1-oxopropan-2-yl)carbamoyl)piperidin-1-yl)-4-(2-chloroacetamido)-5-oxopentanoic acid] (ClAc-E[Pip]W[Cit]-X5), the Ki was 0.31 µM.
For the molecule `NC(=O)NCCC[C@H](NC(=O)[C@H](Cc1c[nH]c2ccccc12)NC(=O)[C@@H]1CCCCN1C(=O)[C@H](CCC(=O)O)NC(=O)CCl)C(=O)Nc1ccc2ccccc2c1` [Compound 11-10, (S)-5-((S)-2-(((S)-3-(1H-Indol-3-yl)-1-(((S)-1-(naphthalen-2-ylamino)-1-oxo-5-ureidopentan-2-yl)amino)-1-oxopropan-2-yl)carbamoyl)piperidin-1-yl)-4-(2-chloroacetamido)-5-oxopentanoic acid] (ClAc-E[Pip]W[Cit]-βNA), the Ki amounted to 0.11 µM.
`Cc1ccc(CNC(=O)[C@H](CCCNC(N)=O)NC(=O)[C@H](Cc2c[nH]c3ccccc23)NC(=O)[C@@H]2CCCCN2C(=O)[C@H](CCS(C)(=O)=O)NC(=O)CCl)cc1` [Compound 11-11, (S)—N—((S)-3-(1H-Indol-3-yl)-1-(((S)-1-((4-methylbenzyl)amino)-1-oxo-5-ureidopentan-2-yl)amino)-1-oxopropan-2-yl)-1-((S)-2-(2-chloroacetamido)-4-(methylsulfonyl)butanoyl)piperidine-2-carboxamide] (ClAc-[Met(O2)][Pip]W[Cit]-{NH(4-Me-benzyl)}): the Ki was 0.17 µM.
In the case of `COC(=O)CC[C@H](NC(=O)C1CO1)C(=O)N1CCCC[C@H]1C(=O)N[C@@H](Cc1c[nH]c2ccccc12)C(=O)N[C@@H](CCCNC(N)=O)C(=O)NCc1ccc(C)cc1` (stereo partly drawn) [Compound 11-12, Methyl (4S)-5-((S)-2-(((S)-3-(1H-indol-3-yl)-1-(((S)-1-((4-methylbenzyl)amino)-1-oxo-5-ureido-pentan-2-yl)amino)-1-oxopropan-2-yl)carbamoyl)piperidin-1-yl)-4-(oxirane-2-carboxamido)-5-oxopentanoate] (X1-E(OMe)[Pip]W[Cit]-{NH(4-Me-benzyl)}), the Ki was over 10 µM.
